Assay results reported in patent US5488060A, “Substituted thiadiazoles, compositions containing them and their use as antimicrobial and marine antifouling agents” (The Dow Chemical Company, priority 1994, dated 1996).
Where two headings read alike, the source gives them in different places.

Legend:
Assay type in all cases: cell-based
Fusarium oxysporum (Fo) = assay: Minimum inhibitory concentration (MIC) in malt yeast agar, Fusarium oxysporum
Protocol: (§1) The antimicrobial activity of the compounds of the present invention is set forth as the minimum inhibitory concentration (MIC) for the active compounds and is determined for nine (9) bacteria, using nutrient agar, and seven (7) yeast and fungi, using malt yeast agar. This determination is conducted using a one percent solution of the test compound prepared in a mixture of acetone and water.
(§2) Malt yeast agar is prepared at pH 5.5 by adding 3 g yeast extract and 45 g malt agar per liter of deionized water. The specific agar is dispensed in 30 mL aliquots into 25×200 mm test tubes, capped and autoclaved for 15 minutes at 115° C.
(§3) The test tubes containing the agar are cooled in a water bath until the temperature of the agar is 48° C. Then, an appropriate amount of the one percent solution of the test compound is added (except in the controls where no compound is added) to the respective test tubes so that the final concentrations are 500, […], 100, 50, 25, 10, 5, 2.5, 1.0 and zero parts per million of the test compound in the agar, thus having a known concentration of test compound dispersed therein. The contents of the test tubes are then transferred to respective petri plates. After drying for 24 hours, the petri plates containing nutrient agar are inoculated with bacteria and those containing malt yeast agar are inoculated with yeast and fungi.
(§4) The inoculation with the yeast and fungi is accomplished as follows. Cultures of yeast and fungi are incubated for seven days on malt yeast agar at 30° C. These cultures are used to prepare suspensions by the following procedure. A suspension of each organism is prepared by adding 10 mL of sterile saline and 10 microliters of octylphenoxy polyethoxy ethanol to the agar slant of yeast or fungi. The sterile saline/octylphenoxy potyethoxy ethanol solution is then agitated with a sterile swab to suspend the microorganism grown on the slant. Each resulting suspension is diluted into sterile saline (1 part suspension: 9 parts sterile saline). Aliquots of these dilutions are placed in individual wells of Steer's Replicator and petri plates inoculated as previously described. The petri plates are incubated at 30° C. and read after 48 hours for yeast and 72 hours for fungi.

Bacillus subtilis (Bs) = assay: Minimum inhibitory concentration (MIC) in nutrient agar, Bacillus subtilis
Protocol: as §1
(§5) Nutrient agar is prepared at pH 6.8, representing a neutral medium, and at pH 8.2, representing an alkaline medium. The nutrient agars are prepared by adding 23 g of nutrient agar to one-liter of deionized water. In addition, the alkaline medium is prepared by adjusting a 0.04M solution of N-[tris-(hydroxymethyl)methyl]glycine buffered deionized water with concentrated sodium hydroxide to a pH of 8.5.
as §3
(§6) The inoculation with bacteria is accomplished by using the following procedure. Twenty-four hour-cultures of each of the bacteria are prepared by incubating the respective bacteria in tubes containing nutrient broth for 24 hours at 30° C. in a shaker. Dilutions of each of the 24 hour-cultures are made so that nine separate suspensions (one for each of the nine test bacteria) are made, each containing 10^8 colony forming units (CFU) per mL of suspension of a particular bacteria. Aliquots of 0.3 mL of each of the bacterial suspensions are used to fill the individual wells of Steer's Replicator. For each microbial suspension, 0.3 mL was used to fill three wells (i.e., three wells of 0.3 mL each) so that for the nine different bacteria, 27 wells are filled. The Steer's Replicator is then used to inoculate both the neutral and alkaline pH nutrient agar petri plates.
(§7) The inoculated petri plates are incubated at 30° C. for 48 hours and then read to determine if the test compound which is incorporated into the agar prevented growth of the respective bacteria.

[1] = system: Aureobasidium pullulan (Ap); assay: Minimum inhibitory concentration (MIC) in malt yeast agar, Aureobasidium pullulan; conditions: pH 5.5, read-out: Minimum Inhibitory Concentration, Ap
Protocol: as §1, §2, §3, §4

Candida albicans (Ca) = assay: Minimum inhibitory concentration (MIC) in malt yeast agar, Candida albicans
Protocol: as §1, §2, §3, §4

[2] = system: Pseudomonas aeruginosa (PRD-10); assay: Minimum inhibitory concentration (MIC) in nutrient agar, Pseudomonas aeruginosa PRD-10; conditions: 48 h
Protocol: as §1, §5, §3, §6, §7

[3] = system: Klebsiella pneumoniae (Kp); assay: Minimum inhibitory concentration (MIC) in nutrient agar, Klebsiella pneumoniae
Protocol: as §1, §5, §3, §6, §7

[4] = system: Staphylococcus aureus (Sa); assay: Minimum inhibitory concentration (MIC) in nutrient agar, Staphylococcus aureus
Protocol: as §1, §5, §3, §6, §7

Escherichia coli (Ec) = assay: Minimum inhibitory concentration (MIC) in nutrient agar, Escherichia coli
Protocol: as §1, §5, §3, §6, §7

[5] = system: Enterobacter aerogenes (Ea); assay: Minimum inhibitory concentration (MIC) in nutrient agar, Enterobacter aerogenes; conditions: Klebsiella aerogenes
Protocol: as §1, §5, §3, §6, §7

Trichoderma viride (Tv) = assay: Minimum inhibitory concentration (MIC) in malt yeast agar, Trichoderma viride; conditions: pH 5.5; malt yeast agar, 30° C., 72 hours for fungi; read-out: Minimum Inhibitory Concentration, Tv
Protocol: as §1, §2, §3, §4

[6] = system: Pseudomonas aeruginosa (Pa); assay: Minimum inhibitory concentration (MIC) in nutrient agar, Pseudomonas aeruginosa
Protocol: as §1, §5, §3, §6, §7

[7] = system: Salmonella choleraesuis (Se); assay: Minimum inhibitory concentration (MIC) in nutrient agar, Salmonella choleraesuis; conditions: Salmonella enterica
Protocol: as §1, §5, §3, §6, §7

Aspergillus niger (An) = assay: Minimum inhibitory concentration (MIC) in malt yeast agar, Aspergillus niger; conditions: pH 5.5; malt yeast agar, 30° C., 72 hours for fungi; read-out: Minimum Inhibitory Concentration, An
Protocol: as §1, §2, §3, §4

Proteus vulgaris (Pv) = assay: Minimum inhibitory concentration (MIC) in nutrient agar, Proteus vulgaris
Protocol: as §1, §5, §3, §6, §7

[8] = system: Saccharomyces cerevisiae (Sc); assay: Minimum inhibitory concentration (MIC) in malt yeast agar, Saccharomyces cerevisiae
Protocol: as §1, §2, §3, §4

[9] = system: Penicillium chrysogenum (Pc); assay: Minimum inhibitory concentration (MIC) in malt yeast agar, Penicillium chrysogenum; conditions: 72 h, pH 5.5, read-out: Minimum Inhibitory Concentration, PC
Protocol: as §1, §2, §3, §4

[10] = pH 5.5, malt yeast agar, 30° C., 72 hours for fungi, read-out: Minimum Inhibitory Concentration, Fo
[11] = pH 6.8, nutrient agar, 30° C., 48 hours, read-out: Minimum Inhibitory Concentration, Bs
[12] = pH 8.2, nutrient agar, 30° C., 48 hours, read-out: Minimum Inhibitory Concentration, Bs
[13] = pH 5.5, malt yeast agar, 30° C., 48 hours for yeast, read-out: Minimum Inhibitory Concentration, Ca
[14] = pH 6.8, read-out: Minimum Inhibitory Concentration, PRD
[15] = pH 8.2, read-out: Minimum Inhibitory Concentration, PRD
[16] = 48 h, pH 8.2, read-out: Minimum Inhibitory Concentration, Kp
[17] = pH 6.8, nutrient agar, 30° C., 48 hours, read-out: Minimum Inhibitory Concentration, Sa
[18] = 48 h, pH 6.8, read-out: Minimum Inhibitory Concentration, Ec
[19] = 48 h, pH 8.2, read-out: Minimum Inhibitory Concentration, Ec
[20] = 48 h, pH 6.8, read-out: Minimum Inhibitory Concentration, Ea
[21] = 48 h, pH 8.2, read-out: Minimum Inhibitory Concentration, Ea
[22] = pH 6.8, nutrient agar, 30° C., 48 hours, read-out: Minimum Inhibitory Concentration, Pa
[23] = pH 8.2, nutrient agar, 30° C., 48 hours, read-out: Minimum Inhibitory Concentration, Pa
[24] = 48 h, pH 8.2, read-out: Minimum Inhibitory Concentration, SC
[25] = pH 6.8, nutrient agar, 30° C., 48 hours, read-out: Minimum Inhibitory Concentration, SC
[26] = 48 h, pH 6.8, read-out: Minimum Inhibitory Concentration, Pv
[27] = 48 h, pH 8.2, read-out: Minimum Inhibitory Concentration, Pv
[28] = 48 h, pH 8.2, read-out: Minimum Inhibitory Concentration, Bs
[29] = pH 6.8, nutrient agar, 30° C., 48 hours, read-out: Minimum Inhibitory Concentration, Kp
[30] = 48 h, pH 6.8, read-out: Minimum Inhibitory Concentration, Sa
[31] = 48 h, pH 8.2, read-out: Minimum Inhibitory Concentration, Sa
[32] = 48 h, pH 6.8, read-out: Minimum Inhibitory Concentration, SC
[33] = pH 5.5, malt yeast agar, 30° C., 48 hours for yeast, read-out: Minimum Inhibitory Concentration, SC

Measured: MIC

N#CSc1nsnc1-c1cccc(Cl)c1 [Example III, 4-(3-Chlorophenyl)-3-thiocyanato-l,2,5-thiadiazole]
2.5 µg/mL: Fusarium oxysporum (Fo); [10] | [1] | Trichoderma viride (Tv) | [8]; 48 h, pH 5.5, read-out: Minimum Inhibitory Concentration, SC
> 500 µg/mL: [2]; [14] | [5]; [20] | [5]; [21] | [6]; [22] | Proteus vulgaris (Pv); [26]
100 µg/mL: Bacillus subtilis (Bs); [12]
5 µg/mL: Candida albicans (Ca); [13] | Aspergillus niger (An)
250 µg/mL: [4]; pH 8.2, nutrient agar, 30° C., 48 hours, read-out: Minimum Inhibitory Concentration, Sa
500 µg/mL: [2]; [15] | [3]; [16] | Escherichia coli (Ec); [19] | [6]; [23] | [7]; [24] | Proteus vulgaris (Pv); [27]
50 µg/mL: [3]; 48 h, pH 6.8, read-out: Minimum Inhibitory Concentration, Kp | Escherichia coli (Ec); [18] | [7]; [25]
25 µg/mL: Bacillus subtilis (Bs); [11] | [4]; [17]

N#CSc1nsnc1-c1ccc(Br)cc1 [Example VI, 4-(4-Bromophenyl)-3-thiocyanato-1,2,5-thiadiazole]
50 µg/mL: [4]; [30]
25 µg/mL: Bacillus subtilis (Bs); [11]
10 µg/mL: [9]
< 1 µg/mL: Trichoderma viride (Tv)
2.5 µg/mL: [1]
500 µg/mL: Bacillus subtilis (Bs); [28] | [2]; [14] | [2]; [15] | [3]; [16] | [3]; [29] | [4]; [31] | Escherichia coli (Ec); [18] | Escherichia coli (Ec); [19] | [5]; [20] | [5]; [21] | [6]; [22] | [6]; [23] | [7]; [32] | [7]; [24] | Proteus vulgaris (Pv); [26] | Proteus vulgaris (Pv); [27]
5 µg/mL: Candida albicans (Ca); [13] | Aspergillus niger (An) | [8]; [33]

COC(=O)c1ccc(-c2nsnc2SCSC#N)cc1 [Example XXVIII]
250 µg/mL: Fusarium oxysporum (Fo); [10] | [8]; [33]
> 500 µg/mL: [2]; [15] | [3]; [16] | [5]; [21] | Trichoderma viride (Tv) | [6]; [23] | [7]; [24] | Proteus vulgaris (Pv); [27]
100 µg/mL: Aspergillus niger (An)
500 µg/mL: Bacillus subtilis (Bs); 48 h, pH 6.8, read-out: Minimum Inhibitory Concentration, Bs | Bacillus subtilis (Bs); [28] | Candida albicans (Ca); [13] | [2]; [14] | [3]; [29] | [4]; [31] | [4]; [17] | Escherichia coli (Ec); [18] | Escherichia coli (Ec); [19] | [5]; [20] | [6]; [22] | [7]; [32] | Proteus vulgaris (Pv); [26]
50 µg/mL: [1]

N#CSc1nsnc1-c1cccnc1 [Example XV, 4-(3-Pyridyl)-3-thiocyanato-1,2,5-thiadiazole]
500 µg/mL: [2]; [14] | [2]; [15] | [3]; [16] | Escherichia coli (Ec); [19] | [5]; [21] | [6]; 48 h, pH 8.2, read-out: Minimum Inhibitory Concentration, Pa | [6]; [22] | [7]; [24] | Proteus vulgaris (Pv); [27]
250 µg/mL: Escherichia coli (Ec); pH 6.8, nutrient agar, 30° C., 48 hours, read-out: Minimum Inhibitory Concentration, Ec | [5]; pH 6.8, nutrient agar, 30° C., 48 hours, read-out: Minimum Inhibitory Concentration, Ea | [7]; [25]
25 µg/mL: Bacillus subtilis (Bs); [11]
50 µg/mL: Fusarium oxysporum (Fo); 72 h, pH 5.5, read-out: Minimum Inhibitory Concentration, Fo | [1] | [4]; [30] | [8]; [33]
100 µg/mL: Bacillus subtilis (Bs); [12] | Candida albicans (Ca); 48 h, pH 5.5, read-out: Minimum Inhibitory Concentration, Ca | [3]; [29] | Aspergillus niger (An) | Proteus vulgaris (Pv); pH 6.8, nutrient agar, 30° C., 48 hours, read-out: Minimum Inhibitory Concentration, Pv
